Results taken from US20190262330A1, “Method of Treating Hepatocellular Carcinoma Using N-(4-(6,7-dimethoxyquinolin-4-yloxy)phenyl)-N′-(4-fluorophenyl)cyclopropane-1,1-dicarboxamide, (2S)-hydroxybutanedioate” (Exelixis, Inc., priority 2017, published 2019).

Key:
[1] = system: previously treated advanced hepatocellular carcinoma; assay: Phase 3 CELESTIAL trial, efficacy (overall survival, progression-free survival, objective response); type: in vivo, human
Text: Eligible patients were 18 years of age or older with a pathologic diagnosis of hepatocellular carcinoma not amenable to curative treatment and with Child-Pugh Class A liver function. […] Additional inclusion criteria included Eastern Cooperative Oncology Group (ECOG) performance status of 0 or 1, acceptable hematologic parameters, and adequate renal function.
Randomization was stratified by disease etiology (HBV virus [with or without HCV], HCV [without HBV], or other), geographic region (Asia or other), and the presence of extrahepatic spread of disease and/or macrovascular invasion (yes or no).
(§1) Treatment interruptions and dose reductions (to 40 mg and then to 20 mg) were utilized to manage adverse events. Patients received study treatment as long as they experienced clinical benefit as judged by the investigator or until they experienced unacceptable toxicity.
The inflation of type 1 error was controlled by Lan-DeMets O'Brien-Fleming alpha-spending function.
Secondary efficacy endpoints were progression-free survival, defined as the time from randomization to the earlier of radiographic progression or death due to any cause, and objective response rate. Tumor assessments were performed using computed tomography or magnetic resonance imaging at baseline and every 8 weeks after randomization until the later of 8 weeks after radiographic progression or treatment discontinuation. Tumor response and progression were assessed by the investigator using Response Evaluation Criteria In Solid Tumors (RECIST) version 1.1. Eisenhauer E A, Therasse P, Bogaerts J, et al. New response evaluation criteria in solid tumours: revised RECIST guideline (version 1.1). […] Safety was continuously evaluated, and the severity of adverse events was assessed by the investigator using the National Cancer Institute Common Terminology Criteria for Adverse Events, version 4. Progression-free survival was tested by stratified log-rank test; significance level 0.04. Overall response rate was tested by 2-sided Fisher's exact test; significance level Of 0.01.
Efficacy was analyzed in all randomized patients by the intent-to-treat principle. Safety was analyzed in all patients who received at least one dose of study treatment. […] Hazard ratios were estimated using Cox regression models. Hypothesis testing for objective response was done with the Cochran-Mantel-Haenszel method. All subgroup analyses of overall survival and progression-free survival were prespecified except for those based on extrahepatic spread of disease or macrovascular invasion as separate factors or sorafenib as the only prior therapy. For subgroup analyses, no adjustments were made for multiplicity, hazard ratios are unstratified, and confidence intervals are considered descriptive.
Patients could have received one other prior systemic therapy. The primary efficacy endpoint was overall survival (OS). Secondary efficacy endpoints were progression-free survival (PFS) and objective response rate (ORR), as assessed by investigator using RECIST 1.1. Tumor assessments were conducted every 8 weeks.

[2] = system: patients with advanced hepatocellular carcinoma; assay: Phase 3 CELESTIAL trial, safety; type: in vivo, human
Description: as §1
Secondary efficacy endpoints were progression-free survival, defined as the time from randomization to the earlier of radiographic progression or death due to any cause, and objective response rate. Tumor assessments were performed using computed tomography or magnetic resonance imaging at baseline and every 8 weeks after randomization until the later of 8 weeks after radiographic progression or treatment discontinuation. Tumor response and progression were assessed by the investigator using Response Evaluation Criteria In Solid Tumors (RECIST) version 1.1. Eisenhauer E A, Therasse P, Bogaerts J, et al. New response evaluation criteria in solid tumours: revised RECIST guideline (version 1.1). Eur J Cancer 2009; 45:228-47. Safety was continuously evaluated, and the severity of adverse events was assessed by the investigator using the National Cancer Institute Common Terminology Criteria for Adverse Events, version 4. Progression-free survival was tested by stratified log-rank test; significance level 0.04. Overall response rate was tested by 2-sided Fisher's exact test; significance level Of 0.01.
Efficacy was analyzed in all randomized patients by the intent-to-treat principle. Safety was analyzed in all patients who received at least one dose of study treatment. For time-to-event endpoints, hypothesis testing was done using the stratified log-rank test with the stratification factors used for randomization; median durations and associated 95% confidence intervals were estimated using the Kaplan-Meier method. Hazard ratios were estimated using Cox regression models. Hypothesis testing for objective response was done with the Cochran-Mantel-Haenszel method. All subgroup analyses of overall survival and progression-free survival were prespecified except for those based on extrahepatic spread of disease or macrovascular invasion as separate factors or sorafenib as the only prior therapy. For subgroup analyses, no adjustments were made for multiplicity, hazard ratios are unstratified, and confidence intervals are considered descriptive.
Patients on both arms who had disease progression could continue treatment at the discretion of the investigator [see Clinical Studies (14)].

ROS1 = ROS1 (Homo sapiens, UniProt P08922); assay: In vitro biochemical and/or cellular kinase assays
Sequence of ROS1 (P08922 28-2347): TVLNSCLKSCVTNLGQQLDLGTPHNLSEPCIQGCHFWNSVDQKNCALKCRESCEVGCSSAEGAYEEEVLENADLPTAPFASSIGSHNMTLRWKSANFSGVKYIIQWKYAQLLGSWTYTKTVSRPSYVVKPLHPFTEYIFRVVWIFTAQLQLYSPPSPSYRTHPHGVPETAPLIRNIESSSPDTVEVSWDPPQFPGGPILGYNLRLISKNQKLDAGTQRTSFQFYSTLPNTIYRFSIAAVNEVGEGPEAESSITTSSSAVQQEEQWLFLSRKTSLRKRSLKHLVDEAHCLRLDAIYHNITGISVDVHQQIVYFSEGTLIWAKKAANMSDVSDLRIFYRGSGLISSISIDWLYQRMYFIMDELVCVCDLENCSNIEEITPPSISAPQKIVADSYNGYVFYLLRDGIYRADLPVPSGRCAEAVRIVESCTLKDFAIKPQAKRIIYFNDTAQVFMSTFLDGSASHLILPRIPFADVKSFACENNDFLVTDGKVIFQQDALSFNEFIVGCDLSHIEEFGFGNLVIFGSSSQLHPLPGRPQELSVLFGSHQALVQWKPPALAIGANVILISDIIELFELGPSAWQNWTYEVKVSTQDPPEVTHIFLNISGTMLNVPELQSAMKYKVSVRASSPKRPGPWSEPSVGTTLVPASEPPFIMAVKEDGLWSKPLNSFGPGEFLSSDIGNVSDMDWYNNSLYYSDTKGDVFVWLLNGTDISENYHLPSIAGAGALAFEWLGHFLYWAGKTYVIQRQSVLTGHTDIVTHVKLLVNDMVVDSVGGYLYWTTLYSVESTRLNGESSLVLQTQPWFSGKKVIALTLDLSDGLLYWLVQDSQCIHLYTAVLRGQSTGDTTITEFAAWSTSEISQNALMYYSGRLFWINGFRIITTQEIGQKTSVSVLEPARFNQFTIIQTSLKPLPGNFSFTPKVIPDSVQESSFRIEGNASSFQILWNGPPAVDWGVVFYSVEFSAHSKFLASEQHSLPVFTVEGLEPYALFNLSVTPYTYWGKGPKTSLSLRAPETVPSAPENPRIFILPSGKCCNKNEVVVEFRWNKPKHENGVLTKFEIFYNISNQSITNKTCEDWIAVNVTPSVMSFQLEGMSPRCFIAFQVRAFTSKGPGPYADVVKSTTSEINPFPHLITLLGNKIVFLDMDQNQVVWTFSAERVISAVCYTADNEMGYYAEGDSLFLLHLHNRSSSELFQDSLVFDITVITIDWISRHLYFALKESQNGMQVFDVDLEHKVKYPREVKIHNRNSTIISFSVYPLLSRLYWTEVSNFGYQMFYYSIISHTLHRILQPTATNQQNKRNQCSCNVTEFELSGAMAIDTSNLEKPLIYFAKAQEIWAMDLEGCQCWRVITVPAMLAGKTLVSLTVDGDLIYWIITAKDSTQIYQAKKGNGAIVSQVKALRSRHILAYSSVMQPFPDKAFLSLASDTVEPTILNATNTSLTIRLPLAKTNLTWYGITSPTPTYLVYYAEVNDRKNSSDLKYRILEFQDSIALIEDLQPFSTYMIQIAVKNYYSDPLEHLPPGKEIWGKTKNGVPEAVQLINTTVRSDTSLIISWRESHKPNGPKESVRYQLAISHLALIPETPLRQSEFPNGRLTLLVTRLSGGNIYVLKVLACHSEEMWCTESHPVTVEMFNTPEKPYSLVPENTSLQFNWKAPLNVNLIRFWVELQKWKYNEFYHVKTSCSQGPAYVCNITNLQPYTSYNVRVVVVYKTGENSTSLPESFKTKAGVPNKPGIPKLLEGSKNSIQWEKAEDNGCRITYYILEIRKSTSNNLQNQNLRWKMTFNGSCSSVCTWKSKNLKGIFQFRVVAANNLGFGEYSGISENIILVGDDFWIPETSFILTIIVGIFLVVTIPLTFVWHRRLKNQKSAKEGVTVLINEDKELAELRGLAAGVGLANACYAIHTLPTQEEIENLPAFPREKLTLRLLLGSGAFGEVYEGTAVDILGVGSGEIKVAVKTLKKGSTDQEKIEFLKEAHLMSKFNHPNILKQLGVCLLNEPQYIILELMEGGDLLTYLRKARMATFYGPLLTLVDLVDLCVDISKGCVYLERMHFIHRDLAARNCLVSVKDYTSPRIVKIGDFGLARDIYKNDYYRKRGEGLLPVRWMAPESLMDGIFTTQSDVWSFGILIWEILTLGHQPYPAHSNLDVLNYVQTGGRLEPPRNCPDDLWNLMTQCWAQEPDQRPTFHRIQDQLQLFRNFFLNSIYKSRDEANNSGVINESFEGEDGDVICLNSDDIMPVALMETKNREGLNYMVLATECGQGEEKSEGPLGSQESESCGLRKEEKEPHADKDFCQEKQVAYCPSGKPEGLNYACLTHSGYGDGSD

[3] = Excretion of 14C-cabozantinib radioactivity in healthy subjects; type: in vivo, human; settings: 72 hour collection
Description: Approximately 81% of the total administered radioactivity was recovered within a 48-day collection period following a single 140 mg dose of an investigational ^14C-cabozantinib formulation in healthy subjects. Approximately 54% was recovered in feces and 27% in urine.

CYP2C8 = CYP2C8 (Homo sapiens, UniProt P10632); assay: In vitro metabolic pathways; type: in vitro ADME
Sequence of CYP2C8 (P10632 whole entry): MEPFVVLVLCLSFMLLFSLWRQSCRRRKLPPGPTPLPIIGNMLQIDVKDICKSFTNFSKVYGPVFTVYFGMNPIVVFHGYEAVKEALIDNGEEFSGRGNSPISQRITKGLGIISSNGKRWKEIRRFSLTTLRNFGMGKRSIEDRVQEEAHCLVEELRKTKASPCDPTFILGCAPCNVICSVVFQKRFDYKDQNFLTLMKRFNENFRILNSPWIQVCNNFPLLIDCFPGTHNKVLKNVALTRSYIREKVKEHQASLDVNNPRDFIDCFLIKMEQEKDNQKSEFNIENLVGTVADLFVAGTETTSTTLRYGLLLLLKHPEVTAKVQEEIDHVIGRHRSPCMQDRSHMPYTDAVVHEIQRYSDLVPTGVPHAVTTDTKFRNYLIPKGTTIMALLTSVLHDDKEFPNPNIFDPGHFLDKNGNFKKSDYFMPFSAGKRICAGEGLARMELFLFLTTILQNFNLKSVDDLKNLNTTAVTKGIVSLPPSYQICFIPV

CYP3A4 [4] = target: CYP3A4 (Homo sapiens, UniProt P08684); assay: In vitro CYP inhibition; type: in vitro ADME
Sequence of CYP3A4 (Homo sapiens, UniProt P08684) (P08684 whole entry): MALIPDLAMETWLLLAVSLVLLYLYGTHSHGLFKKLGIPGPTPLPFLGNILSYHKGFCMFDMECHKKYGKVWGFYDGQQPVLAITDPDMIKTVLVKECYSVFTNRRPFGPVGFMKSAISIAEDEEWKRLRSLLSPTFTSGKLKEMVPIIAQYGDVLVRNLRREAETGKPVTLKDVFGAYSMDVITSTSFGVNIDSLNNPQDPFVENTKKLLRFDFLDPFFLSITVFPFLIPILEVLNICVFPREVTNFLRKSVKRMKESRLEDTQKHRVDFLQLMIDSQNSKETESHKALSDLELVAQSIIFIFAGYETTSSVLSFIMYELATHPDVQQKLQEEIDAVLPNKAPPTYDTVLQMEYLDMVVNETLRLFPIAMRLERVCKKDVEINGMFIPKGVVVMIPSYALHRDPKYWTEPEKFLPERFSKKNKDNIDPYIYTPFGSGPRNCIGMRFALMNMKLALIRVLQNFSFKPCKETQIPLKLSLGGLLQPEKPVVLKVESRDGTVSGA

CYP1A2 = assay: In vitro CYP induction; type: in vitro ADME
CYP2C19 = assay: In vitro CYP induction; type: in vitro ADME
CYP3A4 [5] = assay: In vitro CYP induction; type: in vitro ADME
[6] = system: murine models of hepatocellular carcinoma; settings: mouse, in vivo; cited from earlier work
[7] = subgroup whose only prior systemic therapy was sorafenib

## COc1cc2nccc(Oc3ccc(NC(=O)C4(C(=O)Nc5ccc(F)cc5)CC4)cc3)c2cc1OC [cabozantinib]
[1]; 6 months
  Kaplan-Meier landmark estimate of % of patients alive (95% CI): 72 (67-76) %
[1]; 12 months
  Kaplan-Meier landmark estimate of % of patients alive (95% CI): 46 (41-50) %
[1]; 18 months
  Kaplan-Meier landmark estimate of % of patients alive (95% CI): 32 (27-37) %
[1]; 24 months
  Kaplan-Meier landmark estimate of % of patients alive (95% CI): 18 (14-22) %
[1]; ITT
  Disease control (partial response or stable disease): 64%
[1]; ITT, second interim analysis, 60 mg once daily
  Median overall survival: 10.2 months
[1]; RECIST 1.1, confirmed responses, ITT
  Objective response rate: 4%
[1]; RECIST 1.1 per investigator, ITT
  Median progression-free survival: 5.2 months
[1]; by investigator
  Best overall response: complete response, n (%): 0
  Best overall response: not evaluable or missing: (15) %
  Best overall response: partial response: (4) %
  Best overall response: progressive disease: (21) %
  Best overall response: stable disease: (60) %
[1]; in vivo
  Improvement in progression-free survival vs placebo: more than 3 months
[1]; [7]
  Median overall survival: 11.3 months
  Median progression-free survival: 5.5 months
[2]; CELESTIAL
  Grade 5 adverse events considered related to study treatment: 6 patients
  Grade 5 adverse events within 30 days of last dose: 12%
[2]; human, in vivo
  Adverse events of any grade regardless of causality: 99%
  Adverse events of grade 3 or 4: 68%
  Any dose reduction: 62%
  Diarrhea, Grade 3/4: 10%
  Discontinuation due to treatment-related adverse event: 16%
  Dose reduction due to diarrhea: 10%
  Dose reduction due to fatigue: 7%
  Dose reduction due to hypertension: 7%
  Dose reduction due to increased aspartate aminotransferase: 6%
  Dose reduction due to palmar-plantar erythrodysesthesia syndrome: 22%
  Fatigue, Grade 3/4: 10%
  Hypertension, Grade 3/4: 16%
  Increased aspartate aminotransferase, grade 3 or 4 adverse event: 12%
  Median time to first dose reduction: 38 days
  Palmar-plantar erythrodysesthesia, Grade 3/4: 17%
  Serious adverse events: 50%
ROS1
  Tyrosine kinase activity of ROS1: inhibits
[3]
  Unchanged cabozantinib as share of total radioactivity in feces: 43%
CYP2C8
  Effect of inhibition of CYP2C8 on metabolite formation: no effect
CYP3A4 [4]
  Effect on CYP3A4 pathway: affected by cabozantinib in vitro
CYP1A2
  Induction of CYP1A2: does not induce
CYP2C19
  Induction of CYP2C19: does not induce
CYP3A4 [5]
  Induction of CYP3A4: does not induce
[6]
  Tumor growth: inhibits tumor growth
